The test system of experiment [1] is H929 multiple myeloma tumour line. Nature of the experiment: In vitro cytotoxicity, Microculture Tetrazolium Assay. Type of experiment: cell-based. Particulars: Homo sapiens, NCI-H929, 48 h, H929 cells, 48 hours exposure, MTT; read-out: IC50 (μM) MTT H929. The protocol: The cytotoxicity studies were carried out on the H929 multiple myeloma tumour line.
The cells are distributed onto microplates and exposed to the test compounds for 48 hours.

The target of experiment [2] is Mcl-1 protein (UniProtKB primary accession number: Q07820) (Homo sapiens, UniProt Q07820). Nature of the experiment: Inhibition of Mcl-1 by fluorescence polarisation, Method 1. Format: binding. Particulars: read-out: IC50 (M) Mcl-1 FP. An outline of the steps: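 Binding was measured as fluorescence polarisation of a fluorescein-labelled ligand (1 nM) displaced from Mcl-1 (5 nM), both final. Compounds ran as 11-point series with final DMSO at 5%.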
For orientation: Fluorescence polarisation rises when a labelled molecule tumbles more slowly, as on binding a larger partner.

Where [3] appears, read: fluorescence polarisation test, Method 2 values are underlined in the patent (underlining not visible here).
Where [4] appears, read: fluorescence polarisation, Method 1, or Method 2.

Where two headings read alike, the source gives them in different places.

In patent US9670227B2, “Thienopyrimidine derivatives, a process for their preparation and pharmaceutical compositions containing them” (LES LABORATOIRES SERVIER, priority 2013, dated 2017) one finds IC50 data, which are given here for 14 compounds.

Sequence of Mcl-1 protein (Q07820 whole entry): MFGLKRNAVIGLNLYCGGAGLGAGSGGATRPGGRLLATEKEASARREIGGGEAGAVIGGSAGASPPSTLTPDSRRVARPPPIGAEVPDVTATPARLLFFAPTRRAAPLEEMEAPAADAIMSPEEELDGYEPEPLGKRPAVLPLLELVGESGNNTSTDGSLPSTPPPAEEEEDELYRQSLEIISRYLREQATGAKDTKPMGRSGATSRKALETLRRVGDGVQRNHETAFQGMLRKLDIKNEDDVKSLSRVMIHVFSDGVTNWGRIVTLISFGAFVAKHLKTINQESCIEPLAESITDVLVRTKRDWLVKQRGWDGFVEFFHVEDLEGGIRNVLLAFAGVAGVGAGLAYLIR

Broadly, the IC50 is the point on the concentration scale where inhibition reaches its midpoint. Turning to `Cc1ccccc1CC(Oc1ncnc2sc(-c3ccco3)c(-c3ccc(OCCN4CCN(C)CC4)c(Cl)c3C)c12)C(=O)O` [Example 354, (2R)-2-{[(5Sa)-5-{3-chloro-2-methyl-4-[2-(4-methylpiperazin-1-yl)ethoxy]phenyl}-6-(furan-2-yl)thieno[2,3-d]pyrimidin-4-yl]oxy}-3-(2-methylphenyl)propanoic acid], the IC50 was 0.544 µM in experiment [1] and 1.1e-08 M in experiment [2] (setting [3]).

As to `COc1ccccc1CC(Oc1ncnc2sc(-c3cccc4occc34)c(-c3ccc(OCCN4CCN(C)CC4)c(Cl)c3C)c12)C(=O)O` [Example 563, (2R)-2-{[6-(1-benzofuran-4-yl)-(5Sa)-5-{3-chloro-2-methyl-4-[2-(4-methylpiperazin-1-yl)ethoxy]phenyl}thieno[2,3-d]pyrimidin-4-yl]oxy}-3-(2-methoxyphenyl)propanoic acid], the IC50 was determined as 1.16 µM in experiment [1] and 7.4e-08 M in experiment [2] (setting [4]).

`CCCCn1nccc1COc1ccccc1CC(Oc1ncnc2sc(-c3ccc(Cl)nc3)c(-c3ccc(OCCN4CCN(C)CC4)c(Cl)c3C)c12)C(=O)O` [Example 606, (2R)-3-{2-[(1-butyl-1H-pyrazol-5-yl)methoxy]phenyl}-2-{[(5Sa)-5-{3-chloro-2-methyl-4-[2-(4-methylpiperazin-1-yl)ethoxy]phenyl}-6-(6-chloropyridin-3-yl)thieno[2,3-d]pyrimidin-4-yl]oxy}propanoic acid]: the IC50 is 0.064 µM in experiment [1] and 4e-09 M in experiment [2] (setting [4]).

For the compound `COc1ccccc1CC(Oc1ncnc2sc(-c3cc(F)c(F)c(OC)c3)c(-c3ccc(OCCN4CCN(C)CC4)c(Cl)c3C)c12)C(=O)O` [Example 524, (2R)-2-{[(5Sa)-5-{3-chloro-2-methyl-4-[2-(4-methylpiperazin-1-yl)ethoxy]phenyl}-6-(3,4-difluoro-5-methoxyphenyl)thieno[2,3-d]pyrimidin-4-yl]oxy}-3-(2-methoxyphenyl)propanoic acid], the IC50 in experiment [1] is 0.417 µM; in experiment [2] (setting [4]), 3.1e-08 M.

In the case of `CCCCn1nccc1COc1ccccc1CC(Oc1ncnc2sc(-c3ccc(F)cc3)c(-c3ccc(OCCN(C)C)c(Cl)c3C)c12)C(=O)O` [Example 133, (2R)-3-{2-[(1-butyl-1H-pyrazol-5-yl)methoxy]phenyl}-2-{[(5Sa)-5-{3-chloro-4-[2-(dimethylamino)ethoxy]-2-methylphenyl}-6-(4-fluorophenyl)thieno[2,3-d]pyrimidin-4-yl]oxy}propanoic acid], the IC50 in experiment [1] was found to be 0.099 µM; in experiment [2] (setting [3]) it was 3.4e-09 M.

For the compound `CCc1sc2ncnc(OC(Cc3ccccc3F)C(=O)O)c2c1-c1ccc(OCCN2CCN(C)CC2)c(Cl)c1C` [Example 463, (2R)-2-[((5Sa)-5-{3-chloro-2-methyl-4-[2-(4-methylpiperazin-1-yl)ethoxy]phenyl}-6-ethylthieno[2,3-d]pyrimidin-4-yl)oxy]-3-(2-fluorophenyl)propanoic acid], the IC50 is 5.11 µM in experiment [1] and 4.6e-08 M in experiment [2] (setting [4]).

With `COc1ccccc1CC(Oc1ncnc2sc(-c3ccsc3)c(-c3ccc(OCCN4CCN(C)CC4)c(Cl)c3C)c12)C(=O)O` [Example 568, (2R)-2-{[(5Sa)-5-{3-chloro-2-methyl-4-[2-(4-methylpiperazin-1-yl)ethoxy]phenyl}-6-(thiophen-3-yl)thieno[2,3-d]pyrimidin-4-yl]oxy}-3-(2-methoxyphenyl)propanoic acid], the IC50 in experiment [1] amounted to 0.22 µM; in experiment [2] (setting [4]), 2.5e-08 M.

As for `Cc1c(-c2c(-c3ccc(F)cc3)sc3ncnc(OC(Cc4ccccc4OCC4CCCO4)C(=O)O)c23)ccc(OCC2CCN(C)C2)c1Cl` [Example 649, (2R)-2-{[(5Sa)-5-{3-chloro-2-methyl-4-[(1-methylpyrrolidin-3-yl)methoxy]phenyl}-6-(4-fluorophenyl)thieno[2,3-d]pyrimidin-4-yl]oxy}-3-{2-[(2R)-tetrahydrofuran-2-ylmethoxy]phenyl}propanoic acid], the IC50 in experiment [1] came out at 0.341 µM; in experiment [2] (setting [4]), 2.3e-08 M.

For `COCCCn1nccc1COc1ccccc1CC(Oc1ncnc2sc(-c3ccc(F)cc3)c(-c3ccc(OCCN4CCN(C)CC4)c(Cl)c3C)c12)C(=O)O` [Example 86, (2R)-2-{[(5Sa)-5-{3-chloro-2-methyl-4-[2-(4-methylpiperazin-1-yl)ethoxy]phenyl}-6-(4-fluorophenyl)thieno[2,3-d]pyrimidin-4-yl]oxy}-3-(2-{[1-(3-methoxypropyl)-1H-pyrazol-5-yl]methoxy}phenyl)propanoic acid], the results for the IC50 in experiment [1] and in experiment [2] (setting [3]) were 0.063 µM and 2.9e-09 M, respectively.

Turning to `Cc1c(-c2c(-c3ccc(F)cc3)sc3ncnc(OC(Cc4ccccc4OCc4ccnn4-c4ccccc4)C(=O)O)c23)ccc(OCCN2CCN(C)CC2)c1Cl` [Example 74, (2R)-2-{[(5Sa)-5-{3-chloro-2-methyl-4-[2-(4-methylpiperazin-1-yl)ethoxy]phenyl}-6-(4-fluorophenyl)thieno[2,3-d]pyrimidin-4-yl]oxy}-3-{2-[(1-phenyl-1H-pyrazol-5-yl)methoxy]phenyl}propanoic acid], the half-inhibitory concentration (IC50) in experiment [1] was 0.365 µM; in experiment [2] (setting [3]), 1.6e-08 M.

As to `COc1cccc(-c2nccc(COc3ccccc3CC(Oc3ncnc4sc(-c5ccc(F)cc5)c(-c5ccc(OCCN6CCN(C)CC6)c(Cl)c5C)c34)C(=O)O)n2)c1` [Example 112, (2R)-2-{[(5Sa)-5-{3-chloro-2-methyl-4-[2-(4-methylpiperazin-1-yl)ethoxy]phenyl}-6-(4-fluorophenyl)thieno[2,3-d]pyrimidin-4-yl]oxy}-3-(2-{[2-(3-methoxyphenyl)pyrimidin-4-yl]methoxy}phenyl)propanoic acid], the figures for the concentration for half-maximal inhibition (IC50) in experiment [1] and in experiment [2] (setting [3]) were 0.011 µM and 5.6e-09 M, respectively.

`Cc1c(-c2c(-c3ccc(F)cc3)sc3ncnc(OC(Cc4ccccc4OCc4ccnc(-c5nccs5)n4)C(=O)O)c23)ccc(OCCN2CCN(C)CC2)c1Cl` [Example 36, (2R)-2-{[(5Sa)-5-{3-chloro-2-methyl-4-[2-(4-methylpiperazin-1-yl)ethoxy]phenyl}-6-(4-fluorophenyl)thieno[2,3-d]pyrimidin-4-yl]oxy}-3-(2-{[2-(1,3-thiazol-2-yl)pyrimidin-4-yl]methoxy}phenyl)propanoic acid]: the figures for the IC50 in experiment [1] and in experiment [2] (setting [3]) were 0.015 µM and 1.1e-08 M, respectively.

With `Cc1c(-c2c(-c3ccco3)sc3ncnc(OC(Cc4ccccc4OCc4ncccn4)C(=O)O)c23)ccc(OCCN2CCN(C)CC2)c1Cl` [Example 286, (2R)-2-{[(5Sa)-5-{3-chloro-2-methyl-4-[2-(4-methylpiperazin-1-yl)ethoxy]phenyl}-6-(furan-2-yl)thieno[2,3-d]pyrimidin-4-yl]oxy}-3-[2-(pyrimidin-2-ylmethoxy)phenyl]propanoic acid], the half-inhibitory concentration (IC50) in experiment [1] was 0.508 µM; in experiment [2] (setting [3]), 7.6e-09 M.

For the compound `CSc1nccc(COc2ccccc2CC(Oc2ncnc3sc(-c4ccc(F)cc4)c(-c4ccc(OCCN5CCN(C)CC5)c(Cl)c4C)c23)C(=O)O)n1` [Example 65, (2R)-2-{[(5Sa)-5-{3-chloro-2-methyl-4-[2-(4-methylpiperazin-1-yl)ethoxy]phenyl}-6-(4-fluorophenyl)thieno[2,3-d]pyrimidin-4-yl]oxy}-3-(2-{[2-(methylsulfanyl)pyrimidin-4-yl]methoxy}phenyl)propanoic acid], the half-maximal inhibitory concentration (IC50) in experiment [1] worked out at 0.043 µM; in experiment [2] (setting [3]) it was 1e-08 M.
